Measured values as given in paper PMC8094182, “8-Substituted Triazolobenzodiazepines: In Vitro and In Vivo Pharmacology in Relation to Structural Docking at the α1 Subunit-Containing GABAA Receptor” (Frontiers in Pharmacology, 2021).

How the values were obtained:
[1] = molecular target: T1, rat α2β3γ2 GABAA receptor (α2GABAA) (Rattus norvegicus, UniProt P18508+P23576); assay: two-electrode voltage clamp, Xenopus oocytes, potentiation of GABA EC3 current; assay type: cell-based; settings: read-out: α2
T1 construct: gene Gabra2; Full-length subunits co-expressed; pentamer; with Gamma-aminobutyric acid receptor subunit beta-3
T1 sequence (P23576 29-451): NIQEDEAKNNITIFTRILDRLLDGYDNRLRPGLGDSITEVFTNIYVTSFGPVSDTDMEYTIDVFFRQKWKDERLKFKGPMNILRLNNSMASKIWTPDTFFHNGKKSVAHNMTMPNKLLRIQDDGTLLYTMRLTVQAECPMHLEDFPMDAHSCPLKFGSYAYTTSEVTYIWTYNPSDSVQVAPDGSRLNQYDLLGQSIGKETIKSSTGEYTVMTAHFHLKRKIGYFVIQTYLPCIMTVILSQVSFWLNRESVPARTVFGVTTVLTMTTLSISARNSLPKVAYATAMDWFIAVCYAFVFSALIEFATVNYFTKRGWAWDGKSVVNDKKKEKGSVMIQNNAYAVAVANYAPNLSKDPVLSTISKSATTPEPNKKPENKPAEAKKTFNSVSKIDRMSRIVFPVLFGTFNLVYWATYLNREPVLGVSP
T1 sequence (P18508 39-466): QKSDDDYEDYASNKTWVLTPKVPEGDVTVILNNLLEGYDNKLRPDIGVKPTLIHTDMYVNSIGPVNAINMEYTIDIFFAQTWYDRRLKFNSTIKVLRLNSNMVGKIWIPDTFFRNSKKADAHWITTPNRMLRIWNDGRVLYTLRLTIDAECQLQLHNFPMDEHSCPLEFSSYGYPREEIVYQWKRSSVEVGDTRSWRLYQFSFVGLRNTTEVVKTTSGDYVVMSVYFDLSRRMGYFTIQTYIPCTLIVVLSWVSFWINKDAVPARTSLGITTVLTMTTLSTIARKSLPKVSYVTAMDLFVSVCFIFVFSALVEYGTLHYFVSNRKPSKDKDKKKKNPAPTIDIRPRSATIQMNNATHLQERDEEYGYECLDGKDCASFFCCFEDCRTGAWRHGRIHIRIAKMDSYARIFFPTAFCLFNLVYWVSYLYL
T1 sequence (P63079 26-473 partner): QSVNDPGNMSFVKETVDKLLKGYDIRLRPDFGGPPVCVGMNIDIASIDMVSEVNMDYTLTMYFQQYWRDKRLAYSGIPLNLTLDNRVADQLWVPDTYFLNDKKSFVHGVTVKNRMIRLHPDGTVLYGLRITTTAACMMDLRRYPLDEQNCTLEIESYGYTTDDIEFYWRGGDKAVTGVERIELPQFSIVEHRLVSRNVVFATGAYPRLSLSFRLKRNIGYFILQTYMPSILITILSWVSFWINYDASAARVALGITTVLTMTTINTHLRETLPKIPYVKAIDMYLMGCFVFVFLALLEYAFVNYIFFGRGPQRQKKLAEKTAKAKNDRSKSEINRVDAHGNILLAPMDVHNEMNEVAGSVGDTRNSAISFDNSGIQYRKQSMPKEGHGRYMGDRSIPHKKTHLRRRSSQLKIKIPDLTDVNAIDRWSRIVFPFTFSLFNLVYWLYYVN
Source text: two-electrode voltage clamp, Xenopus oocytes, potentiation of GABA EC3 current on rat α2β3γ2 GABAA receptor (α2GABAA)

[2] = molecular target: T1, rat α2β3γ2 GABAA receptor (α2GABAA); assay: [3H]flunitrazepam displacement, HEK […] membranes, filtration; assay type: binding; settings: read-out: α2
[3] = molecular target: T2, rat α3β3γ2 GABAA receptor (α3GABAA) (Rattus norvegicus, UniProt P18508+P20236); assay: as above; assay type: binding; settings: read-out: α3
T2 construct: gene Gabra3; Full-length subunits co-expressed; pentamer; with Gamma-aminobutyric acid receptor subunit beta-3
T2 sequence (P20236 29-493): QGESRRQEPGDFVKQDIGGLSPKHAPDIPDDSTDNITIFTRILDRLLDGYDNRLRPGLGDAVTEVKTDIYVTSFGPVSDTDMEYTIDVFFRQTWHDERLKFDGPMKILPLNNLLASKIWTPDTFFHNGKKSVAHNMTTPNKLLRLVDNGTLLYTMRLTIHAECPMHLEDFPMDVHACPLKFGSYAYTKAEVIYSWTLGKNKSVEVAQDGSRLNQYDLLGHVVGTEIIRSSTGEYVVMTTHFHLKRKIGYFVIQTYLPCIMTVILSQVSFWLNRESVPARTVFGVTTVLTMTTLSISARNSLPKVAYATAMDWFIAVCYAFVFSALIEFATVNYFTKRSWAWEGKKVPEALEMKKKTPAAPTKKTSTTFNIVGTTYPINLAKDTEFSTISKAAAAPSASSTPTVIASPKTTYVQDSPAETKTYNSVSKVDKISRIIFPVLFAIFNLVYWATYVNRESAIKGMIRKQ
T2 sequence (P18508 39-466): as the sequence (P18508 39-466) above
T2 sequence (P63079 26-473 partner): as the sequence (P63079 26-473 partner) above

[4] = molecular target: T3, rat α5β3γ2 GABAA receptor (α5GABAA) (Rattus norvegicus, UniProt P18508+P19969); assay: two-electrode voltage clamp, Xenopus oocytes, potentiation of GABA EC3 current; assay type: cell-based; settings: read-out: α5
T3 construct: gene Gabra5; Full-length subunits co-expressed; pentamer; with Gamma-aminobutyric acid receptor subunit beta-3
T3 sequence (P19969 26-464): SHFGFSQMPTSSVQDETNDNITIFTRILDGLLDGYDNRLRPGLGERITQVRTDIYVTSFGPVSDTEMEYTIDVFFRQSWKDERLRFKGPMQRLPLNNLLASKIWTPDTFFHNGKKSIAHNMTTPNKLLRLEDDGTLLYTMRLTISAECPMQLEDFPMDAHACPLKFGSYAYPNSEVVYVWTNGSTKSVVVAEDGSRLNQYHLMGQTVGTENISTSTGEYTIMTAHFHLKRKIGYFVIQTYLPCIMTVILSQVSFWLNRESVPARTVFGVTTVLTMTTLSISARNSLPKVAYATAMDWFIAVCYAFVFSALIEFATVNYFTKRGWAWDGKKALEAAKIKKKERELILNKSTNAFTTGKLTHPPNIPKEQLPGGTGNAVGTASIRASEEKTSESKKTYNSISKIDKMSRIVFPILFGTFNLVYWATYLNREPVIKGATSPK
T3 sequence (P18508 39-466): as the sequence (P18508 39-466) above
T3 sequence (P63079 26-473 partner): as the sequence (P63079 26-473 partner) above
Source text: two-electrode voltage clamp, Xenopus oocytes, potentiation of GABA EC3 current on rat α5β3γ2 GABAA receptor (α5GABAA)

[5] = molecular target: T4, rat α1β3γ2 GABAA receptor (α1GABAA) (Rattus norvegicus, UniProt P18508+P62813); assay: [3H]flunitrazepam displacement, HEK […] membranes, filtration; assay type: binding; settings: read-out: α1
T4 construct: gene Gabra1; Full-length subunits co-expressed; pentamer; with Gamma-aminobutyric acid receptor subunit beta-3
T4 sequence (P62813 28-455): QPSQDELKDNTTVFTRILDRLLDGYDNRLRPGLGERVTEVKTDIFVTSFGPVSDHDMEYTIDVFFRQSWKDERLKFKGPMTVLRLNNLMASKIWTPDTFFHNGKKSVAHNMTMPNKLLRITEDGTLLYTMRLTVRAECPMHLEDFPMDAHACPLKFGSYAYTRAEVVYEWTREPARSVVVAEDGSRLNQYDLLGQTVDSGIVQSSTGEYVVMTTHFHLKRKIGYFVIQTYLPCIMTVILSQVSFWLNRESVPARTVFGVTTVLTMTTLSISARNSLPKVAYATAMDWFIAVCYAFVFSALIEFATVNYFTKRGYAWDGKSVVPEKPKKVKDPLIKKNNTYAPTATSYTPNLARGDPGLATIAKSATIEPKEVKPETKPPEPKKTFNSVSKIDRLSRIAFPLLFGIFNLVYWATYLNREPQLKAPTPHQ
T4 sequence (P18508 39-466): as the sequence (P18508 39-466) above
T4 sequence (P63079 26-473 partner): as the sequence (P63079 26-473 partner) above

[6] = molecular target: T4, rat α1β3γ2 GABAA receptor (α1GABAA); assay: two-electrode voltage clamp, Xenopus oocytes, potentiation of GABA EC3 current; assay type: cell-based; settings: read-out: α1
Source text: two-electrode voltage clamp, Xenopus oocytes, potentiation of GABA EC3 current on rat α1β3γ2 GABAA receptor (α1GABAA)

[7] = molecular target: T3, rat α5β3γ2 GABAA receptor (α5GABAA); assay: [3H]flunitrazepam displacement, HEK […] membranes, filtration; assay type: binding; settings: read-out: α5
[8] = molecular target: T2, rat α3β3γ2 GABAA receptor (α3GABAA); assay: two-electrode voltage clamp, Xenopus oocytes, potentiation of GABA EC3 current; assay type: cell-based; settings: read-out: α3
Source text: two-electrode voltage clamp, Xenopus oocytes, potentiation of GABA EC3 current on rat α3β3γ2 GABAA receptor (α3GABAA)

SMILES: C#Cc1ccc2c(c1)C(c1ccccc1Cl)=NCc1nnc(C)n1-2 [XLi-JY-DMH, 6-(2-chlorophenyl)-8-ethynyl-1-methyl-4H-benzo [f][1,2,4]triazolo[4,3-a][1,4]diazepine]
- EC50 [1]: 20.7 nM
- Ki [2]: 7.2 ± 3 nM
- Ki [3]: 4.2 ± 1.6 nM
- EC50 [4]: 14.9 nM
- Ki [5]: 7.7 ± 5.5 nM
- EC50 [6]: 35.2 nM
- Ki [7]: 3.8 ± 1 nM
- EC50 [8]: 47 nM
